# In the supplement of paper PMC10307832:
# Tests used:
# Experiment in all cases: relative viability (nuclei count vs DMSO), 5 days (fraction); higher = more cells survive
# [1] = compound: CC[C@H](CO)Nc1nc(NCc2ccccc2)c2ncn(C(C)C)c2n1 [Seliciclib] + COc1cc2c(Oc3ccc(NC(=O)C4(C(=O)Nc5ccc(F)cc5)CC4)cc3F)ccnc2cc1OCCCN1CCOCC1 [Foretinib] (partner 0.25 µM)
# Procedure, shortened: (§1)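 Nuclei were stained with Hoechst during a one-step fixation (final 0.05% Triton X-100, 1% formaldehyde, 1 ug/ml Hoechst) carried out 5 days after dosing, then counted on 4× images. The cells, lung cancer lines in 1536-well plates, had been dosed by pin tool the day after seeding with one drug alone or a fixed anchor-drug dose plus five library-drug doses (not always all listed) in √10 steps. Relative viability is the nuclei count in treated wells divided by that in vehicle wells, and each value is the median of duplicate plates.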
# [2] = compound: CC[C@H](CO)Nc1nc(NCc2ccccc2)c2ncn(C(C)C)c2n1 [Seliciclib] + O=C(CCCCCCC(=O)Nc1ccccc1)NO [Vorinostat] (partner 1 µM)
# Procedure, shortened: as §1
# [3] = compound: CC[C@H](CO)Nc1nc(NCc2ccccc2)c2ncn(C(C)C)c2n1 [Seliciclib] + NC(=O)Nc1cc(-c2cccc(F)c2)sc1C(=O)N[C@H]1CCCNC1 [AZD7762] (partner 0.2 µM)
# Procedure, shortened: as §1
# [4] = compound: CC[C@H](CO)Nc1nc(NCc2ccccc2)c2ncn(C(C)C)c2n1 [Seliciclib] + CS(=O)(=O)N1CCN(Cc2cc3nc(-c4cccc5[nH]ncc45)nc(N4CCOCC4)c3s2)CC1 [Pictilisib] (partner 1 µM)
# Procedure, shortened: as §1
Cell Line,relative viability ([1]; first compound 0.08 µM),relative viability ([1]; first compound 0.253 µM),relative viability ([1]; first compound 0.8 µM),relative viability ([1]; first compound 2.53 µM),relative viability ([1]; first compound 8 µM),relative viability ([2]; first compound 0.08 µM),relative viability ([2]; first compound 0.253 µM),relative viability ([2]; first compound 0.8 µM),relative viability ([2]; first compound 2.53 µM),relative viability ([2]; first compound 8 µM),relative viability ([3]; first compound 0.08 µM),relative viability ([3]; first compound 0.253 µM),relative viability ([3]; first compound 0.8 µM),relative viability ([3]; first compound 2.53 µM),relative viability ([3]; first compound 8 µM),relative viability ([4]; first compound 0.08 µM),relative viability ([4]; first compound 0.253 µM),relative viability ([4]; first compound 0.8 µM),relative viability ([4]; first compound 2.53 µM),relative viability ([4]; first compound 8 µM)
NCI-H441,0.791,0.86,0.969,0.93,0.623,0.844,0.418,0.898,0.771,0.639,1.1,1.09,0.979,1.28,0.994,0.49,0.635,0.531,0.469,0.377
NCI-H23,0.977,1.09,0.96,0.88,0.592,0.648,0.554,0.618,0.367,0.499,0.25,0.292,0.424,0.258,0.468,0.507,0.462,0.395,0.283,0.365
HARA,0.95,1.06,0.943,0.982,0.714,0.555,0.518,0.588,0.381,0.487,0.348,0.293,0.381,0.596,0.908,0.284,0.376,0.339,0.422,0.283
NCI-H1792,–,–,–,–,–,–,–,–,–,–,0.897,0.57,0.567,–,0.736,0.233,0.313,0.273,0.285,0.274
NCI-H1703,0.352,0.362,0.323,0.298,0.342,–,–,–,–,–,0.132,0.147,0.135,0.126,0.111,0.252,0.234,0.26,0.225,0.241
NCI-H358,0.684,0.597,0.752,0.665,0.457,0.726,0.942,0.513,0.711,0.267,0.55,0.577,0.235,0.462,0.434,0.346,0.408,0.289,0.312,0.216
CAL-12T,1.16,1.48,1.26,1.21,0.731,0.583,0.407,0.788,0.7,0.625,0.509,0.772,0.71,0.707,0.729,0.304,0.566,0.39,0.303,0.221
NCI-H727,0.905,0.917,0.716,0.661,0.896,1.19,1.25,1.04,0.744,1.07,0.611,0.731,0.567,0.522,0.787,0.43,0.338,0.197,0.232,0.296
NCI-H2085,0.89,0.954,0.903,0.829,0.676,0.763,0.762,0.756,0.74,0.556,0.948,0.962,0.998,1.03,0.868,0.504,0.533,0.394,0.493,0.425
NCI-H1395,0.974,0.905,0.978,0.995,0.966,0.83,0.597,0.702,–,0.631,0.41,0.436,0.419,–,0.533,0.6,0.757,0.641,0.535,0.649
SW 900,0.802,0.995,0.784,0.765,0.891,0.53,0.701,0.484,0.467,0.35,0.537,0.616,0.704,0.647,0.559,–,–,–,–,–
NCI-H460,0.993,1.05,1,1.06,0.882,0.709,0.809,0.671,0.901,0.552,0.567,0.752,0.71,1.06,0.773,0.367,0.376,0.275,0.248,0.252
A549,0.919,0.985,0.895,0.966,0.775,–,–,–,–,–,–,–,–,–,–,0.501,0.595,0.525,0.507,0.273
IA-LM,1.18,1.48,1.04,1.1,0.925,0.895,0.984,0.848,0.935,0.867,–,–,–,–,–,0.338,0.412,0.344,0.346,0.232
EKVX,–,0.887,0.533,0.756,0.77,0.627,0.857,0.553,0.633,0.593,0.767,0.767,0.791,0.642,0.711,0.42,0.5,0.417,0.423,0.305
ChaGo-K-1,0.877,0.862,0.892,0.979,0.823,0.758,0.628,0.743,0.654,0.433,0.875,0.511,0.895,0.918,0.892,0.766,0.533,0.638,0.513,0.378
SK-MES-1,0.891,0.889,0.771,0.903,0.862,1.03,1.13,1.11,1.02,1.01,–,–,–,–,–,0.317,0.349,0.353,0.335,0.31
NCI-H1755,0.94,0.891,1.02,0.882,0.915,0.654,0.748,0.696,0.692,0.637,0.447,0.408,0.481,0.488,0.617,0.414,0.504,0.389,0.339,0.386
NCI-H2228,0.931,0.826,0.727,0.856,0.591,0.585,0.521,0.58,0.586,0.335,–,–,–,–,–,0.372,0.333,0.234,0.457,0.339
